Measured values from ChEMBL document CHEMBL2062421, “The antioxidant effect of imine resveratrol analogues” (Bioorg Med Chem Lett, 2012).
Activity calls are given as the source filed them. No cut-off for these calls is given here.

Legend:
[1] = Antioxidant activity assessed as DPPH scavenging activity after 30 mins by microplate reader method; format: functional
[2] = Antioxidant activity assessed as singlet 1O2 oxygen quenching activity after 2 mins by EPR spectrometry; format: functional
[3] = Antioxidant activity assessed as inhibition of singlet 1O2 oxygen formation at 1.3 uM after 2 mins by EPR spectrometry; format: functional
[4] = Antioxidant activity assessed as complete inhibition of singlet 1O2 oxygen formation at 37 uM after 2 mins by EPR spectrometry
[5] = Ratio of resveratrol IC50 to compound IC50 for singlet 1O2 oxygen quenching activity
[6] = Antioxidant activity assessed as inhibition of TEMP-singlet 1O2 oxygen adduct formation measuring after 2 mins by EPR spectrometry; format: functional

SMILES | IC50 [1] [µM] | IC50 [2] [µM] | also measured
COc1cccc(/C=N/c2ccccc2C)c1 | > 1000 |  | 
COc1cccc(/C=N/c2ccccc2O)c1 | 24.9 | 1.42 | 
COc1cccc(/C=N/c2ccc(C)cc2)c1 | > 1000 |  | 
COc1ccc(/C=N/c2ccc(OC)cc2)cc1 | > 1000 |  | 
COc1cc(/C=C/C(=O)CC(=O)/C=C/c2ccc(O)c(OC)c2)ccc1O [CURCUMIN] |  | 2.75 | 
Cc1cccc(/N=C/c2ccc(O)cc2)c1 | > 1000 |  | 
Oc1ccccc1/N=C/c1ccccc1 | 23.9 | 3.47 | 
COc1ccc(/N=C/c2ccc(O)cc2)cc1 | > 1000 |  | 
Oc1ccc(/C=C/c2cc(O)cc(O)c2)cc1 [RESVERATROL] | 71.2 | 16.9 | 
Cc1ccc(/N=C/c2cccc(O)c2)cc1 | > 1000 |  | 
Oc1ccc(/C=N/c2cccc(O)c2)cc1 | 362 |  | 
COc1ccc(/C=N/c2ccccc2O)cc1 | 28.1 | 1.3 | 
Cc1ccc(/N=C/c2ccc(O)cc2)cc1 | > 1000 |  | 
Oc1ccccc1/C=N/c1ccccc1O | 27.4 | 2.92 | 
Oc1cccc(/N=C/c2ccccc2O)c1 | 468 |  | 
COc1cc(/C=N/c2ccc(O)cc2)cc(OC)c1 | 413 |  | 
Oc1ccc(/N=C/c2ccccc2O)cc1 | 561 |  | 
Oc1ccc(/N=C/c2cc(O)cc(O)c2)cc1 | 164 |  | 
O=C1O[C@H]([C@@H](O)CO)C(O)=C1O [ASCORBIC ACID] | 19.3 |  | 
Oc1ccccc1/C=N/c1ccccc1 [2-((PHENYLIMINO)METHYL)PHENOL] | > 1000 |  | 
Oc1ccc(/C=N/c2ccccc2O)cc1O | 12.1 | 2.26 | 
C(=N\c1ccccc1)/c1ccccc1 | > 1000 |  | 
Oc1cccc(/C=N/c2ccccc2O)c1 | 23.1 | 2.18 | 
Oc1ccc(/C=N/c2ccccc2O)cc1 | 24.3 | 0.99 | inhibition [3]: Active; inhibition [4]: Active; Ratio IC50 [5]: > 15; inhibition [6]: Dose-dependent effect
Oc1cccc(/C=N/c2ccccc2)c1 | > 1000 |  | 
Oc1ccc(/N=C/c2ccccc2)cc1 [4-(BENZYLIDENEAMINO)PHENOL] | 142 |  | 
